Data published in PubChem BioAssay (NCI).
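Protocol summary: plate cells (96-well), add compound at 5 concentrations, incubate 48 h, interpolate endpoints linearly. TGI: total growth inhibition.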

Experiments:
Assay in all cases: NCI anticancer screen, dose series, 48 h
NCI/ADR-RES ovarian = system: NCI/ADR-RES ovarian
SK-MEL-2 melanoma = system: SK-MEL-2 melanoma
OVCAR-5 ovarian = system: OVCAR-5 ovarian
K-562 leukemia = system: K-562 leukemia
NCI-H226 lung = system: NCI-H226 lung
NCI-H460 lung = system: NCI-H460 lung
KM12 colon = system: KM12 colon
EKVX NSCLC = system: EKVX NSCLC
DU-145 prostate = system: DU-145 prostate
SN12C renal = system: SN12C renal
OVCAR-3 ovarian = system: OVCAR-3 ovarian
HL-60(TB) leukemia = system: HL-60(TB) leukemia
SF-268 CNS = system: SF-268 CNS
RXF 393 renal = system: RXF 393 renal
LOX IMVI melanoma = system: LOX IMVI melanoma
HCC-2998 colon = system: HCC-2998 colon
MDA-MB-231 breast = system: MDA-MB-231 breast
HOP-92 NSCLC = system: HOP-92 NSCLC
IGROV1 ovarian = system: IGROV1 ovarian
MCF7 breast = system: MCF7 breast
BT-549 breast = system: BT-549 breast
COLO 205 colon = system: COLO 205 colon
SNB-19 CNS = system: SNB-19 CNS
CCRF-CEM leukemia = system: CCRF-CEM leukemia
ACHN renal = system: ACHN renal
HOP-62 NSCLC = system: HOP-62 NSCLC
HCT-116 colon = system: HCT-116 colon
SK-MEL-28 melanoma = system: SK-MEL-28 melanoma
U251 CNS = system: U251 CNS
A498 renal = system: A498 renal
T-47D breast = system: T-47D breast
MDA-MB-435 = system: MDA-MB-435
786-0 renal = system: 786-0 renal
A549 NSCLC = system: A549 NSCLC
SF-295 CNS = system: SF-295 CNS
UACC-257 melanoma = system: UACC-257 melanoma
SR leukemia = system: SR leukemia
TK-10 renal = system: TK-10 renal
OVCAR-8 ovarian = system: OVCAR-8 ovarian
MALME-3M melanoma = system: MALME-3M melanoma
HCT-15 colon = system: HCT-15 colon
SK-MEL-5 melanoma = system: SK-MEL-5 melanoma
NCI-H522 lung = system: NCI-H522 lung
OVCAR-4 ovarian = system: OVCAR-4 ovarian
NCI-H23 lung = system: NCI-H23 lung
SK-OV-3 ovarian = system: SK-OV-3 ovarian
HS 578T breast = system: HS 578T breast
MOLT-4 leukemia = system: MOLT-4 leukemia
SW-620 colon = system: SW-620 colon
PC-3 prostate = system: PC-3 prostate
HT29 colon = system: HT29 colon
SF-539 CNS = system: SF-539 CNS
M14 melanoma = system: M14 melanoma
SNB-75 CNS = system: SNB-75 CNS
MDA-N = system: MDA-N
UACC-62 melanoma = system: UACC-62 melanoma
RPMI-8226 leukemia = system: RPMI-8226 leukemia
CAKI-1 renal = system: CAKI-1 renal
UO-31 renal = system: UO-31 renal
KM20L2 colon = system: KM20L2 colon
LXFL 529 NSCLC = system: LXFL 529 NSCLC
M19-MEL melanoma = system: M19-MEL melanoma
HOP-18 NSCLC = system: HOP-18 NSCLC
DMS 273 small cell lung = system: DMS 273 small cell lung

Measured: TGI

O=C1C=C(Nc2nc(C(=O)O)cc(=O)[nH]2)c2ccccc2C1=O
not listed: KM20L2 colon | LXFL 529 NSCLC | M19-MEL melanoma | HOP-18 NSCLC | DMS 273 small cell lung
> 100 µM: all other assays above

O=C(Nc1cccc(C(F)(F)F)c1)c1cc(-c2ccccc2)nc(=S)[nH]1
> 100 µM: SK-MEL-2 melanoma | OVCAR-5 ovarian | NCI-H226 lung | NCI-H460 lung | KM12 colon | SN12C renal | OVCAR-3 ovarian | HL-60(TB) leukemia | LOX IMVI melanoma | KM20L2 colon | LXFL 529 NSCLC | HCC-2998 colon | HOP-92 NSCLC | M19-MEL melanoma | COLO 205 colon | SNB-19 CNS | HOP-18 NSCLC | HOP-62 NSCLC | HCT-116 colon | SF-295 CNS | UACC-257 melanoma | SR leukemia | OVCAR-8 ovarian | MALME-3M melanoma | HCT-15 colon | OVCAR-4 ovarian | SW-620 colon | DMS 273 small cell lung | HT29 colon | M14 melanoma | CAKI-1 renal | UO-31 renal
